pEC50, pIC50: −log10 of the molar value.

In assay [1] the target is T1, human recombinant 5-Lipoxygenase (Homo sapiens, UniProt P09917).
T1 sequence (P09917 1-674): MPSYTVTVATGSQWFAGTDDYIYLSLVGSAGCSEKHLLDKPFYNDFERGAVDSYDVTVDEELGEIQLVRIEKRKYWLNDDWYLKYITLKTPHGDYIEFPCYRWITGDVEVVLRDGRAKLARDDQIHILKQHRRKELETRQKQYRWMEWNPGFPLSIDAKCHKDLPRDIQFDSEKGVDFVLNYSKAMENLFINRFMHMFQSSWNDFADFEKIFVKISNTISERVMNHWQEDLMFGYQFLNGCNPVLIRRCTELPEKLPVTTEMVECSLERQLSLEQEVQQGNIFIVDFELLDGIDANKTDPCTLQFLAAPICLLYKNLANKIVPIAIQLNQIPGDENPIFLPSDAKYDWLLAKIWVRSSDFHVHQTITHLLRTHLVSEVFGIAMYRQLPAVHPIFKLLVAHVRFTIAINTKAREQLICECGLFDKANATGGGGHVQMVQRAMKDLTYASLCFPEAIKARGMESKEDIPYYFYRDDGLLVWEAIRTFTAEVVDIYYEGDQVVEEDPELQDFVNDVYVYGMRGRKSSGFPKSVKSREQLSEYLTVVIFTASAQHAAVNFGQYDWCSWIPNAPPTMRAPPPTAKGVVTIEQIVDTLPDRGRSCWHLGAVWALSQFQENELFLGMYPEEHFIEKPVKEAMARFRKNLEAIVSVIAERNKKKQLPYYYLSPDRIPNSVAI
Kind of assay: 5-Lipoxygenase Enzyme Assay. The settings on record: 70 μM arachidonic acid, 10 minute incubation at room temperature, FOX reagent, absorbance at 620 nm; read-out: inhibition of 5-Lipoxygenase with an IC50. It counts as biochemical. In outline:
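Recombinant human 5-LOX in 50 mM Tris-HCl pH 7.4 was preincubated with compound, then 70 μM arachidonic acid was added for 10 min at room temperature. Hydroperoxide was read by FOX reagent (ferric xylenol orange, 1 h complex formation) as absorbance at 620 nm. Five concentrations in triplicate were tested, starting at 10 μM.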

In assay [2] the target is T2, porcine leukocyte 12/15-Lipoxygenase (Sus scrofa, UniProt P16469).
T2 sequence (P16469 1-663): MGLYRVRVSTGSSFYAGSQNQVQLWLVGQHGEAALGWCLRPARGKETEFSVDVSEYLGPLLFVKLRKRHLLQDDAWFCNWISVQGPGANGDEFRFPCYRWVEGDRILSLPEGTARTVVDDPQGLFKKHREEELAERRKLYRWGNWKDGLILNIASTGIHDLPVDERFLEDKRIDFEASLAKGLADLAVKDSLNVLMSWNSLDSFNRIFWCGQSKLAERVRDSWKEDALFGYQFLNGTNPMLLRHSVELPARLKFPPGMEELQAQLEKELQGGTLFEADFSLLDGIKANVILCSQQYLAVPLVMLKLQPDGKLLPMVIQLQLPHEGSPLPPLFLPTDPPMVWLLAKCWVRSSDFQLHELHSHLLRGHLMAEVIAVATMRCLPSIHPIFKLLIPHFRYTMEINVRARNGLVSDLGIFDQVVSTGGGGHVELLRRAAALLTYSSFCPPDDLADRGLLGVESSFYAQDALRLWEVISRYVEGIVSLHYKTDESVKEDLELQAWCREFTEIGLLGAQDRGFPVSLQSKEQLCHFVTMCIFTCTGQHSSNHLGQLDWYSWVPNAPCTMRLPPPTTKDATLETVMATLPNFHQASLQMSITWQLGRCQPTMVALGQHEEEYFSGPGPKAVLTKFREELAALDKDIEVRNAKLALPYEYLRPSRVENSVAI
Kind of assay: 12/15-Lipoxygenase Enzyme Assay. It counts as biochemical. The note with it: 70 μM arachidonic acid, 10 minute incubation at room temperature, FOX reagent, absorbance at 620 nm; read-out: inhibition of 12/15-Lipoxygenase with an IC50. The text has this: This procedure was used for measuring the enzymatic activity of porcine leukocyte 12/15-Lipoxygenase using a […] method based on the ferric oxidation of xylenol orange.
• 96 well flat bottom microfilter plates (VWR, Catalog # 62402-933 9295) • Lipoxygenase screening assay buffer (Cayman, Catalog # 760710) • Porcine leukocyte 12/15-Lipoxygenase (Cayman, Catalog # 60300) • Arachidonic Acid (Sigma, Catalog # A3555) • Xylenol orange tetrasodium salt (Aldrich, Catalog # 227854) • Iron (II) sulfate heptahydrate (Sigma, Catalog # F7002) • Sulfuric acid (95-98%) [18M] • Methanol Procedure
Porcine Leukocyte 12/15-Lipoxygenase (Cayman Cat # 60300) was used in this assay. Test compound and/or vehicle was added to 1.3 μL 12/15-Lipoxygenase in 50 mM Tris-HCl buffer, pH 7.4. The reaction was initiated by addition of 70 μM arachidonic acid in Tris-HCl buffer, pH 7.4, and terminated after a 10 minute incubation at room temperature by addition of FOX reagent (25 mM sulfuric acid, 100 μM xylenol orange, 100 μM iron (II) sulfate, methanol:water 9:1). The yellow color of acidified xylenol orange was converted to a blue color by the lipid hydroperoxide-mediated oxidation of Fe^2+ ions and the interaction of the resulting Fe^3+ ions with the dye. The complex was allowed to form during a 1 hour incubation at room temperature with shaking. Absorbance of the Fe^3+ complex was then measured at […] using a spectrophotometer.
Negative controls contained enzyme during the incubation step but substrate was not added until after the FOX reagent. Compounds are screened at 5 concentrations in triplicate starting at 10 μM

Assay [3] deals with LTB4 production in human whole blood. The experiment in a line: Inhibition of LTB4 Production in Blood. It counts as cell-based. The settings on record: 1 h, 20 μM A23187, 60 minutes at 37° C., LTB4 in plasma by ELISA, read-out: protection against LTB4 at an EC50. In outline: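 Citrated human whole blood preincubated 15 min at 37 °C with compound (top final 30 μM, 1:3 dilutions, quadruplicate), then stimulated with 20 μM A23187 for 60 min at 37 °C. Plasma LTB4 quantified by ELISA; IC50 from percent inhibition versus vehicle.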
On the technique in general: ELISA stands for enzyme-linked immunosorbent assay.

Assay [4] concerns release of the leukotriene LTB4 from a neutrophil cell line (MPRO cell line). The experiment in a line: LTB4-Cell Assay. It counts as cell-based. The settings on record: Mus musculus, 1 h, read-out: inhibition of LTB4 with an EC50. Summed up: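 Mouse promyelocytic cells differentiated to neutrophils with 10 μM all-trans retinoic acid for 72 h, then stimulated with 1 μM A23187 plus compound for 1 h at 37° C. Supernatant LTB4 quantified by competitive EIA; 5 concentrations in quadruplicate from 10 μM top.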

On to `Cc1c(O)cc2c(c1C)N(c1cccc(O)c1)CC1(CCC1)C2` [1′-(3-hydroxyphenyl)-7′,8′-dimethyl-2′,4′-dihydro-1′H-spiro[cyclobutane-1,3′-quinolin]-6′-ol], for which the pIC50 is over 6.52 in assay [1] and over 5.30 in assay [2].

As for `Cc1c(O)cc2c(c1C)N(c1ccc(F)cc1)CC1(CCC1)C2` [1′-(4-fluorophenyl)-7′,8′-dimethyl-2′,4′-dihydro-1′H-spiro[cyclobutane-1,3′-quinolin]-6′-ol], in assay [2], the pIC50 is over 5.30.

Turning to `COc1ccc(N2CC3(CCC3)Cc3cc(O)c(C)c(C)c32)cc1` [1′-(4-methoxyphenyl)-7′,8′-dimethyl-2′,4′-dihydro-1′H-spiro[cyclobutane-1,3′-quinolin]-6′-ol], in assay [2], the pIC50 is over 5.30.

On to `Cc1c(O)cc2c(c1C)N(c1ccc(O)cn1)CC1(CCC1)C2` [1′-(5-hydroxypyridin-2-yl)-7′,8′-dimethyl-2′,4′-dihydro-1′H-spiro[cyclobutane-1,3′-quinolin]-6′-ol], for which the figures for the pIC50 in assay [1] and in assay [2] were over 6.52 and over 5.30, respectively. For the same compound, the pEC50 in assay [3] is over 5.00.

Consider `CCN1CC2(CCC2)Cc2cc(O)c(C)c(C)c21` [1′-ethyl-7′,8′-dimethyl-2′,4′-dihydro-1′H-spiro[cyclobutane-1,3′-quinolin]-6′-ol], for which the pIC50 in assay [2] was over 5.30.

`COc1cc2c(c(C)c1C)N(c1ccc(O)cc1)CC1(CCC1)C2` [4-(6′-methoxy-7′,8′-dimethyl-2′,4′-dihydro-1′H-spiro[cyclobutane-1,3′-quinoline]-1′-yl)phenol]: the pIC50 in assay [1] is over 6.52; in assay [2] it was over 5.30.

In the case of `Cc1c(C)c2c(c(C)c1O)C(OC1CCCC1)CC1(CCC1)O2` (centres unmarked) [4-(cyclopentyloxy)-5,7,8-trimethyl-3,4-dihydrospiro[chromene-2,1′-cyclobutane]-6-diol], the values for the pIC50 in assay [1] and in assay [2] were over 6.52 and over 5.30, respectively. Moreover, in assay [4], the pEC50 was over 5.30.

With `Cc1c(C)c2c(c(C)c1O)C(SC(C)C)CC1(CCC1)O2` (centres unmarked) [4-(isopropylthio)-5,7,8-trimethyl-3,4-dihydrospiro[chromene-2,1′-cyclobutan]-6-ol], the pIC50 was over 6.52 in assay [1] and over 5.30 in assay [2]. Further, the pEC50 in assay [4] is over 5.30.

For the compound `Cc1c(C)c2c(c(C)c1OC(=O)CN1CCN(C)CC1)CCC1(CCC1)O2` [5,7,8-trimethyl-3,4-dihydrospiro[chromene-2,1′-cyclobutan]-6-yl-2-(4-methylpiperazin-1-yl)acetate], the pIC50 in assay [2] was over 5.30.

As for `Cc1c(C)c2c(c(C)c1O)CC1(CCC1)CO2` [5,7,8-trimethylspiro[chroman-3,1′-cyclobutan]-6-ol], the pIC50 in assay [1] is over 6.52; in assay [2], over 5.30. Also, the pEC50 in assay [3] is over 5.00.

Consider `CCc1cc2c(c(CC)c1O)C=CC1(CCC1)O2` [5,7-diethylspiro[chromene-2,1′-cyclobutan]-6-ol], for which the pIC50 in assay [1] is over 6.52; in assay [2], over 5.30. Also, the pEC50 in assay [3] was over 5.00.

In the case of `CC(C)c1cc2c(c(C(C)C)c1O)C=CC1(CCC1)O2` [5,7-diisopropylspiro[chromene-2,1′-cyclobutan]-6-ol], the pIC50 in assay [1] is over 6.52; in assay [2], over 5.30. The negative-log EC50 (pEC50) in assay [3] was over 5.00.

Regarding `Cc1cc2c(c(C)c1O)C=C(c1cnco1)C1(CCC1)O2` [5,7-dimethyl-3-(1,3-oxazol-5-yl)spiro[chromene-2,1′-cyclobutan]-6-ol], the pIC50 is over 6.52 in assay [1] and over 5.30 in assay [2]. Further, the pEC50 in assay [3] is over 5.00.

As to `Cc1cc2c(c(C)c1O)CC(c1cnco1)C1(CCC1)O2` (centres unmarked) [5,7-dimethyl-3-(oxazol-5-yl)spiro[chroman-2,1′-cyclobutan]-6-ol], the pIC50 in assay [1] is over 6.52; in assay [2], over 5.30. In addition, the pEC50 in assay [3] is over 5.00.

Turning to `Cc1c(O)c(CCc2ccc3ccccc3n2)c(C)c2c1CCC1(CCC1)O2` [5,8-dimethyl-7-(2-(quinolin-2-yl)ethyl)spiro[chroman-2,1′-cyclobutan]-6-ol], in assay [2], the pIC50 is over 5.30.

For `COc1c(C(C)(C)C)cc2c(c1C)CC1(CCC1)CN2c1ccc(O)cn1` [6-(7′-tert-butyl-6′-methoxy-5′-methyl-2′,4′-dihydro-1′H-spiro[cyclobutane-1,3′-quinoline]-1′-yl)pyridin-3-ol], in assay [2], the pIC50 was over 5.30.

On to `Cc1c(O)c(-c2cc3ccccc3o2)c(C)c2c1CCC(C)(C)O2` [7-(1-benzofuran-2-yl)-2,2,5,8-tetramethylchroman-6-ol], for which the pIC50 in assay [2] was over 5.30.

Take `Cc1c(O)c(C(C)C)cc2c1CCC1(CCC1)O2` [7-isopropyl-5-methyl-3,4-dihydrospiro[chromene-2,1′-cyclobutan]-6-ol]: the pIC50 in assay [1] is over 6.52; in assay [2], over 5.30. For the same compound, the pEC50 in assay [3] was over 5.00.

Consider `Cc1c(O)c(C(C)C)cc2c1C=CC1(CCC1)O2` [7-isopropyl-5-methylspiro[chromene-2,1′-cyclobutan]-6-ol], for which the values for the pIC50 in assay [1] and in assay [2] were over 6.52 and over 5.30, respectively. Moreover, in assay [3], the pEC50 was over 5.00.

As for `Cc1ccc(N2CC3(CCC3)Cc3cc(O)c(C)c(C)c32)cc1` [7′,8′-dimethyl-1′-p-tolyl-2′,4′-dihydro-1′H-spiro[cyclobutane-1,3′-quinolin]-6′-ol], the pIC50 in assay [1] is over 6.52; in assay [2], over 5.30.

For the compound `Cc1c(O)c(C(C)(C)C)cc2c1CC1(CCC1)CN2c1ccc(O)cn1` [7′-tert-butyl-1′-(5-hydroxypyridin-2-yl)-5′-methyl-2′,4′-dihydro-1′H-spiro[cyclobutane-1,3′-quinolin]-6′-ol], the pIC50 in assay [2] was over 5.30.

On to `CCCc1ccc(S(=O)(=O)NCCCN2CC3(CCC3)Cc3cc(O)c(C)c(C)c32)cc1` [N-(3-(6′-hydroxy-7′,8′-dimethyl-2′,4′-dihydro-1′H-spiro[cyclobutane-1,3′-quinoline]-1′-yl)propyl)-4-propylbenzenesulfonamide], for which the pIC50 in assay [1] is over 6.52; in assay [2] it was over 5.30. The pEC50 in assay [3] is over 5.00.

One may read the pEC50 as the negative decadic logarithm of the EC50, by convention in mol/L.

For the origin of these results see patent publication US7576094B2, “Spiro derivatives as lipoxygenase inhibitors” (Eli Lilly and Company, priority 2004, dated 2009).
